Assay results published in US20250144178A1, “PHARMACEUTICAL COMPOSITION FOR CANCER TREATMENT COMPRISING FUSION PROTEIN INCLUDING IL-12 AND ANTI-FAP ANTIBODY AND ANTICANCER AGENT” (KANAPH THERAPEUTICS INC., priority 2022, published 2025).
pEC50: −log10 of the molar value.

Legend:
[1] = test system: IL-12 receptor of human T cells; experiment: p-STAT4 signaling ability in human T cells (AlphaLISA); format: cell-based; conditions: anti-CD3 activated human T cells, 2 hours, FIG. 19; read-out: half maximal effective concentration (EC50), p-STAT4
Protocol: In order to identify whether when IL-12 binds to the IL-12 receptor of human T cells, IL-12 initiate signaling by inducing phosphorylation of STAT4, a signaling mediator, the human T cells activated with anti-CD3 (OKT3, Invitrogen) were analyzed using the AlphaLISA SureFire Ultra p-STAT4 (Tyr693) Assay Kit (PerkinElmer, Massachusetts, USA).
Specifically, human proteins IL-12, T1.01, T1.02, T1.03 and T1.12 were suspended at 100 ng/ml and diluted by serial dilution. The human T cells activated with anti-CD3 (OKT3, Invitrogen) were treated with the diluted recombinant human IL-12, T1.01, T1.02, T1.03 and T1.12. After 2 hours of treatment, the cells were lysed and treated with a reagent (PerkinElmer) that detects p-STAT4 (phosphorylated STAT4). pSTAT4 was detected at an excitation wavelength of 680 nm and an emission wavelength of 615 nm with a spectrophotometer.

[2] = test system: human T cells; experiment: IFN-γ secretion in human T cells (ELISA); format: cell-based; conditions: anti-CD3 activated human T cells, 48 hours, FIG. 21
Protocol: For cytokine measurement, enzyme-linked immunosorbent assay (ELISA, R&D systems) was performed on the supernatant stored at −20° C. in the following steps:
(i) The capture antibody was diluted according to the Certificate of Analysis (CoA) and coated on a 96-well plate for 24 hours.
(ii) The wells were washed with a wash solution, and then blocking was performed for 1 hour with 1% BSA (Bovine serum albumin, Sigma) solution.
(iii) The wells were washed with a wash solution, and then the samples were treated for 2 hours.
(iv) The wells were washed with a wash solution, and then the detection antibody was diluted according to the Certificate of Analysis and aliquoted into the wells, and then the wells were treated therewith for 2 hours.
(v) The wells were washed with a wash solution, and then treated with streptavidin-HRP for 20 minutes.
(vi) The wells were washed with a wash solution, and then treated with a substrate solution for 20 minutes.
(vii) The wells were treated with a stop solution, and the absorbance was measured at 450 nm.
Specifically, the human T cells activated with anti-CD3 (OKT3, Invitrogen) were diluted to 5×10^5 cells/ml and dispensed in a 96-well plate at 200 μl/well. Recombinant human IL-12, T1.12, T1.01, T1.02 and T1.03 were diluted to 10 nM and dispensed at 20 μl/well. […]

[3] = test system: HEK-Blue IL-12 cells; experiment: Signaling ability in IL-12 recognizing cells (STAT4 inducible SEAP reporter); format: cell-based, human; conditions: serial dilution from 4 nM, 24 hours, FIG. 18
Protocol: The HEK-Blue IL-12 cell line transformed with the IL-12 receptor gene and the STAT4 inducible SEAP reporter gene into HEK293 cells, which are human embryonic kidney fibroblasts, was obtained from Invivogen (San Diego, USA). The HEK-Blue IL-12 cells were maintained in DMEM (GIBCO) containing 10% FBS (GIBCO), 100 μg/ml Normocin and 1×HEK-Blue selection.
Specifically, the HEK-Blue IL-12 cell line, which is an IL-12 recognizing cell, was diluted to 2.8×10^5 cells/ml and dispensed at 180 μl/well. Recombinant human IL-12, T1.01m, T1.02m, T1.03m and T1.12m were suspended at 4 nM and diluted by serial dilution. HEK-Blue IL-12 cells were treated with the diluted recombinant human IL-12, T1.01m, T1.02m, T1.03m and T1.12m. After 24 hours of treatment, the cell supernatant was collected and mixed with QUANTI-Blue Solution (Invivogen) in a 96-well plate. The reporter expression level was measured at 620 nm using a spectrophotometer (Thermo Fisher).

pEC50 [1]: 11.05
Substance: recombinant human IL-12: Recombinant human IL-12 used as comparator in signaling and IFN-γ secretion tests [reference compound]
average IFN-γ in supernatant [2]: 1,640 pg/ml | IL-12 recognition / STAT4 reporter gene expression (620 nm absorbance) [3]: IL-12 was recognized, and STAT4 expressed a reporter gene by inducing phosphorylation
